Reference: ChEMBL document CHEMBL1125504, “2-Substituted 1-azabicycloalkanes, a new class of non-opiate antinociceptive agents” (J Med Chem, 1992)
Active and inactive are the calls of the source. The calls are words filed in the database; no cut-off is given here.

What was measured:
[1] = molecular target: T1, Adrenergic receptor alpha-2 (Rattus norvegicus, UniProt P22086+P19328+P22909); assay: Inhibitory constant was measured on alpha-2 adrenergic receptor /uptake using [3H]- clonidine as radioligand in rat brain cortex.; format: tissue-based
T1 sequence (P22086 whole entry): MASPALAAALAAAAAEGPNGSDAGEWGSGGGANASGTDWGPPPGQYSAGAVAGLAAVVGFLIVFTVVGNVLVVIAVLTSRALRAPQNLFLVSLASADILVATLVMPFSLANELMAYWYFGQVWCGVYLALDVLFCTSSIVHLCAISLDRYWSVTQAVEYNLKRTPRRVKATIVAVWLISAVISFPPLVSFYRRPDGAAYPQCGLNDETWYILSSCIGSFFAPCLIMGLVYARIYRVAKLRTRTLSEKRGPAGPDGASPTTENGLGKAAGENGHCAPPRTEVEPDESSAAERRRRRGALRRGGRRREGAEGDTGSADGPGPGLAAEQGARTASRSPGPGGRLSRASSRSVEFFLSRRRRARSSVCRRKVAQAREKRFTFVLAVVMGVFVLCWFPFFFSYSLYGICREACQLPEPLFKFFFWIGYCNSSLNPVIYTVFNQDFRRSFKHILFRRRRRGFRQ
T1 sequence (P19328 whole entry): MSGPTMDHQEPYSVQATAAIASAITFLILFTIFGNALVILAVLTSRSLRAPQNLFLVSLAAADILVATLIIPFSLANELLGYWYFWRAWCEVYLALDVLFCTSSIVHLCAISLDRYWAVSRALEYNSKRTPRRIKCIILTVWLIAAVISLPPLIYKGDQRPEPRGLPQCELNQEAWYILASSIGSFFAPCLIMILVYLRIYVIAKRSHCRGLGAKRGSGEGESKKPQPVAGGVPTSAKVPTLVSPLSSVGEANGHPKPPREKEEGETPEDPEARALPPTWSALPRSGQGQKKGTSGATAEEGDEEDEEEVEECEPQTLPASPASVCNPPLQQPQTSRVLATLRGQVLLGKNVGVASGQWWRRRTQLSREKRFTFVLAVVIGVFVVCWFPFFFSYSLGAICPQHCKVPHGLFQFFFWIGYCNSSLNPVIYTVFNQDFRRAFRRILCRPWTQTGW
T1 sequence (P22909 whole entry): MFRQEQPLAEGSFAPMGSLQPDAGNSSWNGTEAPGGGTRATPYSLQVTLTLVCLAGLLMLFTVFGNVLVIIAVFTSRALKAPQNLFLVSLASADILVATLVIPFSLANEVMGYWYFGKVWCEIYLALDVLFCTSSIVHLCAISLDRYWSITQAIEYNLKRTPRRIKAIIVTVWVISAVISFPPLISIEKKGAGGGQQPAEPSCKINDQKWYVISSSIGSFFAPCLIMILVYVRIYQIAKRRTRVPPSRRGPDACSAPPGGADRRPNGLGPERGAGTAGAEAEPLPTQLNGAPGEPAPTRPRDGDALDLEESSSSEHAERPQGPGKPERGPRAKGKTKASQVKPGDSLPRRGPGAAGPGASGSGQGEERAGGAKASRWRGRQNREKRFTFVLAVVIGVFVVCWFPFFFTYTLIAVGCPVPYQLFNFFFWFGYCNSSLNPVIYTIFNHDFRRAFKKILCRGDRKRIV

[2] = molecular target: GABA-A receptor; anion channel (Rattus norvegicus) (UniProt O09028+P15431+P18506+P18508+P19969+P20236+P23574+P23576+P28471+P28473+P30191+P62813+P63079+P63138+Q91ZM7+Q9ES14); assay: Inhibition of [3H]GABA binding to gamma-aminobutyric-acid A (GABA-A) receptor of rat brain cerebellum at 10 uM; format: tissue-based
[3] = molecular target: Cannabinoid receptor (Rattus norvegicus) (UniProt Q9QZN9+P20272); assay: Inhibitory constant (10 uM) was measured on cannabinoid receptor/uptake using [3H]CP-55940 as radioligand in rat brain cortex.; format: tissue-based
[4] = molecular target: Adrenergic receptor beta (Rattus norvegicus) (UniProt P18090+P10608+P26255); assay: Inhibitory constant (1 uM) was measured on beta adrenergic receptor/uptake using [3H]- dihydroalprenolol as radioligand in rat brain cortex.; format: tissue-based
[5] = species on record: Mus musculus; assay: Antinociceptive activity in mice, determined using abdominal constriction test.; format: functional; details: Abdomen
[6] = species on record: Mus musculus; assay: Antinociceptive activity using mouse tail flick test; Inactive; format: functional, organism-based
[7] = test system: Mus musculus; assay: Antinociceptive activity in mice following i.p. treatment, determined using tail flick test.; format: functional; details: ip
[8] = molecular target: Opioid receptor (Rattus norvegicus) (UniProt P33533+P34975+P33535); assay: Inhibitory constant (10 uM) was measured on opioid receptor/uptake using [3H]- naloxone as radioligand in rat whole brain.
[9] = molecular target: Serotonin 2 (5-HT2) receptor (Rattus norvegicus) (UniProt P30994+P08909+P14842); assay: Inhibitory constant (1 uM) was measured on 5-hydroxytryptamine 2 receptor/uptake using [3H]- ketanserin as radioligand in rat brain cortex.; format: tissue-based
[10] = molecular target: Adrenergic receptor alpha-1 (Rattus norvegicus) (UniProt P15823+P23944+P43140); assay: Inhibitory constant (1 uM) was measured on alpha-1 adrenergic receptor/uptake using [3H]- WB-4101 as radioligand in rat brain cortex.; format: tissue-based
[11] = molecular target: D(2) dopamine receptor (Rattus norvegicus) (UniProt P61169); assay: Inhibitory constant (1 uM) was measured on dopamine receptor D2 using [3H]- spiperone as radioligand in rat brain striatum.; format: tissue-based
[12] = molecular target: Serotonin 1 (5-HT1) receptor (Rattus norvegicus) (UniProt P28564+P30940+P19327+P28565); assay: Inhibition constant (1 uM) was measured on 5-hydroxytryptamine 1 receptor/uptake using [3H]- serotonin as radioligand in rat brain cortex.; format: tissue-based
[13] = species on record: Mus musculus; assay: Antinociceptive activity using mouse abdominal constriction test; inactive; format: functional, organism-based; details: Abdomen
[14] = test system: Mus musculus; assay: Antinociceptive activity (100 mg/Kg) was determined using mouse tail flick test.; format: functional
[15] = test system: Mus musculus; assay: Antinociceptive activity (10 mg/Kg) was determined using mouse abdominal constriction test.; format: functional, Abdomen
[16] = test system: Mus musculus; assay: Antinociceptive activity (50 mg/Kg) was determined using mouse tail flick test.; format: functional
[17] = molecular target: T1, Adrenergic receptor alpha-2; assay: Inhibitory constant was measured on alpha-2 adrenergic receptor /uptake using [3H] clonidine as radioligand in rat brain cortex; format: tissue-based

Cannabinoid receptor (Rattus norvegicus), sequence (P20272 whole entry, looked up): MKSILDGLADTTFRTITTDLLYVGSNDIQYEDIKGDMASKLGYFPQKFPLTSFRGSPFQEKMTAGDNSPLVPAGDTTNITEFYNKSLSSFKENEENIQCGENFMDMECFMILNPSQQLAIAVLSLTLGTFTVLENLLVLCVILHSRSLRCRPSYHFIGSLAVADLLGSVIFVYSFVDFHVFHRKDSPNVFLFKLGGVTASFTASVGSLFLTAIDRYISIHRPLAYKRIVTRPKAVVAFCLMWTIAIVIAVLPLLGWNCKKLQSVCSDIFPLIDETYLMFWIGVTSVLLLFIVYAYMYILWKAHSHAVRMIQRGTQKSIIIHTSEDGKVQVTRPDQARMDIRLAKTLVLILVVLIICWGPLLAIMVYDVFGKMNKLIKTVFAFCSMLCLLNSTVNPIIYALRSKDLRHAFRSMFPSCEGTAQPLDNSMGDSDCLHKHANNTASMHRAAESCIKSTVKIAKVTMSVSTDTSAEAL
Cannabinoid receptor (Rattus norvegicus), sequence (Q9QZN9 whole entry, looked up): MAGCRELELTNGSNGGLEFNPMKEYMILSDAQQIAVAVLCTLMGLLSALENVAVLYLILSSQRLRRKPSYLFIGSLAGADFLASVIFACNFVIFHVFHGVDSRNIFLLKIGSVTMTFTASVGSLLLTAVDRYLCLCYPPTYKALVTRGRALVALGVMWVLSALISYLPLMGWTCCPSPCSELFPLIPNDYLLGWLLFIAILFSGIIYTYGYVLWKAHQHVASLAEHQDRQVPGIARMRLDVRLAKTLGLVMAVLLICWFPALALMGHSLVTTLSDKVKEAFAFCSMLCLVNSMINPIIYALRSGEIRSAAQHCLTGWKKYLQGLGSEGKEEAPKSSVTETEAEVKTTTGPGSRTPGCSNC
Opioid receptor (Rattus norvegicus), sequence (P33533 whole entry, looked up): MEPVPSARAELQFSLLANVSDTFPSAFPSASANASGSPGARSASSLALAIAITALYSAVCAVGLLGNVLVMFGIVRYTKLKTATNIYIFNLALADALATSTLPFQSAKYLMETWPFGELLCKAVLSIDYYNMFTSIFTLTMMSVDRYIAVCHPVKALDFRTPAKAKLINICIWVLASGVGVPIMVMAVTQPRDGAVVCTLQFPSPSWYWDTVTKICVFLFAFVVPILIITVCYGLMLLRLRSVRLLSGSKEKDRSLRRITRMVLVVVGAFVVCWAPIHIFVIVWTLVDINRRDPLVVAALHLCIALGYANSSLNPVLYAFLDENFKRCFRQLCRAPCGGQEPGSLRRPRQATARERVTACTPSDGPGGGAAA
Opioid receptor (Rattus norvegicus), sequence (P33535 whole entry, looked up): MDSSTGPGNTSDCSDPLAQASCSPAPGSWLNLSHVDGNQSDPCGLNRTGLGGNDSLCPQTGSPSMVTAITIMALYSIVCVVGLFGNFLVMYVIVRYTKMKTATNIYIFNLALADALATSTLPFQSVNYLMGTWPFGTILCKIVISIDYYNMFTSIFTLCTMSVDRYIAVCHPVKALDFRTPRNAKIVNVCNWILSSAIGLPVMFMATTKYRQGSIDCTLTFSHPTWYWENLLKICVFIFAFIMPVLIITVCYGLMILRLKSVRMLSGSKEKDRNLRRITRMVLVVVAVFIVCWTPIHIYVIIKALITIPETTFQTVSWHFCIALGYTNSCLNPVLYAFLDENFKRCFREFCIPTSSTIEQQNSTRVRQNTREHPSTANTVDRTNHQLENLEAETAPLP
Opioid receptor (Rattus norvegicus), sequence (P34975 whole entry, looked up): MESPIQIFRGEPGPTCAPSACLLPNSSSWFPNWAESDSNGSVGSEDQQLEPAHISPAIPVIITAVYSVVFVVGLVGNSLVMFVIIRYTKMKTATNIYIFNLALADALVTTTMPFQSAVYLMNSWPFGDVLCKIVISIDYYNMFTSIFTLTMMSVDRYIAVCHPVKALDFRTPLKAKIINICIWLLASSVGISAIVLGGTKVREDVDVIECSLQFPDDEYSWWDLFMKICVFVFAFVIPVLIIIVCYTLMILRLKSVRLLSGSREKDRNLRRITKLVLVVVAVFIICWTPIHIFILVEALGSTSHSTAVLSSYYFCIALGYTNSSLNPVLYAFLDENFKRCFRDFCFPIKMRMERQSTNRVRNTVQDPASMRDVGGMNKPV
Serotonin 2 (5-HT2) receptor (Rattus norvegicus), sequence (P08909 whole entry, looked up): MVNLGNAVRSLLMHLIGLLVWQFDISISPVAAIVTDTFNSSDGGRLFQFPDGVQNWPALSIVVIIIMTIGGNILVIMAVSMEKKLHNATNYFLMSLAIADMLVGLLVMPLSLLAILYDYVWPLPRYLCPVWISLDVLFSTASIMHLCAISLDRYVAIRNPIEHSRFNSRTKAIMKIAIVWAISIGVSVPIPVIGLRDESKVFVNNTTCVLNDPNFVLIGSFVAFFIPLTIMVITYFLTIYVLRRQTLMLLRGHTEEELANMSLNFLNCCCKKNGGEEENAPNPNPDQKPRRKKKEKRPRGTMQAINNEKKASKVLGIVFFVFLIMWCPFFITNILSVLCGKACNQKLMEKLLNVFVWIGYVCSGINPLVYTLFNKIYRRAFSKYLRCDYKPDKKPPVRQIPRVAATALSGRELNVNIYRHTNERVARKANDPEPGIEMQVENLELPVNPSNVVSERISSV
Serotonin 2 (5-HT2) receptor (Rattus norvegicus), sequence (P14842 whole entry, looked up): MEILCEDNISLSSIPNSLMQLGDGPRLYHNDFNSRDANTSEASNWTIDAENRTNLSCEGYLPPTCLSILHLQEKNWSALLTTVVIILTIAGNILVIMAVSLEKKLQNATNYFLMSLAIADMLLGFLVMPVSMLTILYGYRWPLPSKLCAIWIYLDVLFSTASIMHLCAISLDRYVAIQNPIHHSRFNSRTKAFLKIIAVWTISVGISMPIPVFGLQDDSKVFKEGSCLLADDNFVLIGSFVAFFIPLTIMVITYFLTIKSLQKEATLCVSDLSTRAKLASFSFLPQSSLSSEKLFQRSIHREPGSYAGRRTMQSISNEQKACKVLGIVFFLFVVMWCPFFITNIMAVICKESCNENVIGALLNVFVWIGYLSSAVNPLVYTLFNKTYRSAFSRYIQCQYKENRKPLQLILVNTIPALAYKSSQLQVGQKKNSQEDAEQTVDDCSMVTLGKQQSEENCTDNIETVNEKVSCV
Serotonin 2 (5-HT2) receptor (Rattus norvegicus), sequence (P30994 whole entry, looked up): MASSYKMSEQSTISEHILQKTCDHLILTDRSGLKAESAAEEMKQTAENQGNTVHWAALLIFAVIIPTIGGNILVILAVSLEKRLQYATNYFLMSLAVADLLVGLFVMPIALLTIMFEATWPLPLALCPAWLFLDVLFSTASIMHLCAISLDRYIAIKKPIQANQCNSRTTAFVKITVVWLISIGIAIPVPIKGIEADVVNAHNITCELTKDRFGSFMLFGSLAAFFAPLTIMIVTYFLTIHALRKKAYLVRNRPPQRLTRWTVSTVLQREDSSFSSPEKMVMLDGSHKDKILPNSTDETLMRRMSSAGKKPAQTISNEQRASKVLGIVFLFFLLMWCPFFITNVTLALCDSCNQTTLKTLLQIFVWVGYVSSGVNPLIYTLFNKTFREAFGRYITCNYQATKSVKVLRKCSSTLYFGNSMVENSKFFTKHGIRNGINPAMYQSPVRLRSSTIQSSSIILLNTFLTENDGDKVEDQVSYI
D(2) dopamine receptor (Rattus norvegicus), sequence (P61169 whole entry): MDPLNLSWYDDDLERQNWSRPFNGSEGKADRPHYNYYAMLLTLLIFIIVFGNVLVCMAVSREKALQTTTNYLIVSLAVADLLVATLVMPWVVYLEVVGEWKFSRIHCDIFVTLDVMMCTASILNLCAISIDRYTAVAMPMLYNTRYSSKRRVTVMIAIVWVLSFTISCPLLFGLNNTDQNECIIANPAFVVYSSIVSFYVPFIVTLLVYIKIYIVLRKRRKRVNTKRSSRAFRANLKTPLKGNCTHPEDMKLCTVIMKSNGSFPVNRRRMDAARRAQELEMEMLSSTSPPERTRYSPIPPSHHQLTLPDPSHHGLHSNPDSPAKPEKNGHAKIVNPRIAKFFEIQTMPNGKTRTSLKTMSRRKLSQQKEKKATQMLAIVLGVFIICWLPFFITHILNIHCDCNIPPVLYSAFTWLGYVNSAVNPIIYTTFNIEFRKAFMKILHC

Brc1ccccc1[C@H]1CC[C@H]2CCCCN21.Cl (stereo in doubt; (+)2a)
Ki [1]: 1.2 µM

Brc1ccccc1[C@H]1CC[C@H]2CCCCN21 (stereo in doubt; (-)2a)
Response [2]: -2% | Response [3]: 2% | Response [4]: -5%

Brc1ccccc1[C@H]1CC[C@H]2CCCCN21 (stereo in doubt; (+)2a)
Response [2]: 4% | Response [3]: 6% | Response [4]: -1%

CC(C)Cc1ccc(C(C)C(=O)O)cc1 (stereo unspecified) [IBUPROFEN]
ED50 [5]: 15.7 mg/kg | ED50 [6]: inactive

COc1ccc2c3c1O[C@H]1[C@@H](O)C=C[C@H]4[C@@H](C2)N(C)CC[C@@]341.COc1ccc2c3c1O[C@H]1[C@@H](O)C=C[C@H]4[C@@H](C2)N(C)CC[C@@]341.O.O=P(O)(O)O.O=P(O)(O)O [CODEINE PHOSPHATE]
ED50 [5]: 11.1 mg/kg | ED50 [7]: 30 mg/kg

Brc1ccccc1[C@H]1CC[C@H]2CCCCN21 (racemic)
Response [8]: 17% | Response [9]: -18% | Response [10]: 6% | Response [11]: 0% | Response [2]: 2% | Response [3]: 1% | Response [12]: 7% | Response [4]: -3%

Brc1ccc([C@H]2CC[C@H]3CCCCN32)cc1.Cl
ED50 [5]: 18.8 mg/kg | ED50 [6]: inactive

Brc1cccc([C@H]2CC[C@H]3CCCCN32)c1.Cl
ED50 [13]: inactive | Response [14]: 60%

Cl.c1ccc(COc2ccc([C@H]3CC[C@H]4CCCCN43)cc2)cc1
ED50 [5]: 16.8 mg/kg | Response [14]: 50%

C1CCC([C@H]2CC[C@H]3CCCCN32)CC1.Cl
Response [15]: 50% | Response [16]: 60%

c1ccc(C2CCC3CCCN32)cc1 (stereo unspecified)
ED50 [5]: 5.7 mg/kg | ED50 [7]: > 25 mg/kg

Brc1ccccc1[C@H]1CC[C@H]2CCCCN21.Cl (racemic)
Ki [17]: 1.12 µM

Brc1ccccc1[C@H]1CC[C@H]2CCCCN21.Cl (stereo in doubt; (-)2a)
Ki [1]: 2.84 µM
